Experimental data published in US20060040919A1, “Bronchorelaxing compounds” (priority 2004, published 2006).

Columns and labels:
[1] = test system: human bronchus preparation; assay: Bronchorelaxation test: LTD4-induced contraction of human bronchus preparation; settings: 10 μM capsazepine, 1 h exposure, then 10 nM LTD4; compared with control LTD4 contraction; exemplary test of FIG. 7
Description: Dissection and mounting of lung tissue preparations. Lung tissue was obtained from patients undergoing lobectomia or pulmectomia due to lung carcinoma. The tissue was placed in a dissection chamber continuously perfused with 10 ml min^−1 of a physiological saline solution (PSS) at room temperature. An airway was identified in the cut part of the lobe, and a bronchus of 10-20 mm length and 1-2 mm diameter was obtained. The bronchus was cut into rings of a width of about 2-3 mm. Each bronchial ring was cleaved to obtain an about rectangular oblong preparation, one end of which was tied to a small steel hook connected to a force transducer, while the other end of the preparation was attached to a fixed hook. This is followed by a period of adjustment, as described below. The preparation was mounted in an atmosphere containing […] and 6% of CO2.
Experimental chamber. The experimental chamber has a volume of 5 ml. It is perfused with PSS at a rate of 3 ml min^−1. Two preparations are mounted in the chamber, and measurements on them are performed in parallel. For mechanical tensioning each force transducer (AME 801, SensoNor A/S, Horten, Norway) is connected to a micrometer screw. The substances to be tested, the reference substance (capsazepine), and transmitter (LTD4) are injected upstream of the preparation(s).
Materials. […]

Row | SMILES | melting point [°C] | remaining contraction (test force) relative to that caused by the control force [1]
1 | Oc1c(O)c(Cl)c2c(c1Cl)CCN(C(=S)NCCc1ccc(Cl)cc1)C2 [Res-4-95, 5,8-Dichloro-N-[2-(4-chlorophenyl)ethyl]-6,7-dihydroxy-3,4-dihydroisoquinoline-2(1H)-carbothioamide] | 83 to 86 | 
2 | Oc1cc2c(cc1O)CN(C(=S)NCCc1ccc(Cl)cc1)CCC2 [capsazepine] |  | about 55%
